The NIST ThermoML archive (doi:10.1016/j.jct.2017.03.022)

Experiment: xn = mol fraction of the nth substance listed
Conditions: 101 kPa, Liquid; for speed of sound: Frequency=3 MHz, Single path-length method; for mass density: Vibrating tube method

O=C1CCCN1 [2-pyrrolidinone] + CC(O)CO
Conditions | mass density, 303.15 K [kg/m3] | mass density, 308.15 K [kg/m3] | mass density, 313.15 K [kg/m3] | mass density, 318.15 K [kg/m3] | mass density, 323.15 K [kg/m3] | speed of sound, 303.15 K [m/s] | speed of sound, 308.15 K [m/s] | speed of sound, 313.15 K [m/s] | speed of sound, 318.15 K [m/s] | speed of sound, 323.15 K [m/s]
x1 = 0.0994 | 1038.42 | 1034.26 | 1030.26 | 1026.14 | 1021.99 | 1511.8 | 1497.1 | 1482.2 | 1467.6 | 1453
x1 = 0.1962 | 1047.15 | 1042.74 | 1038.53 | 1034.14 | 1029.74 | 1526.8 | 1511.5 | 1496.4 | 1481.6 | 1466.5
x1 = 0.3038 | 1056.3 | 1051.69 | 1047.29 | 1042.69 | 1038.13 | 1543.7 | 1528.1 | 1512.5 | 1497.3 | 1481.7
x1 = 0.4148 | 1065.17 | 1060.55 | 1055.91 | 1051.2 | 1046.49 | 1560.1 | 1544.3 | 1528.5 | 1513.2 | 1497.3
x1 = 0.5021 | 1071.72 | 1067.1 | 1062.38 | 1057.63 | 1052.9 | 1571.9 | 1555.9 | 1540 | 1524.6 | 1508.5
x1 = 0.5951 | 1078.36 | 1073.71 | 1069.03 | 1064.29 | 1059.57 | 1583.5 | 1567.3 | 1551.2 | 1535.7 | 1519.4
x1 = 0.6891 | 1084.67 | 1080.01 | 1075.46 | 1070.79 | 1066.14 | 1594.1 | 1577.5 | 1561.4 | 1545.9 | 1529.3
x1 = 0.7994 | 1091.64 | 1087.08 | 1082.66 | 1078.14 | 1073.64 | 1604.8 | 1588.2 | 1572 | 1556.7 | 1539.9
x1 = 0.8908 | 1097.03 | 1092.6 | 1088.37 | 1084.03 | 1079.69 | 1612.3 | 1595.6 | 1579.6 | 1563.9 | 1546.7
x1 = 1 | 1103.07 | 1098.99 | 1094.9 | 1090.82 | 1086.75 | 1617.7 | 1601.3 | 1585.4 | 1570.4 | 1553.5

OCCCO [propan-1,3-diol] + O=C1CCCN1
Conditions | mass density, 303.15 K [kg/m3] | mass density, 308.15 K [kg/m3] | mass density, 313.15 K [kg/m3] | mass density, 318.15 K [kg/m3] | mass density, 323.15 K [kg/m3] | speed of sound, 303.15 K [m/s] | speed of sound, 308.15 K [m/s] | speed of sound, 313.15 K [m/s] | speed of sound, 318.15 K [m/s] | speed of sound, 323.15 K [m/s]
x2 = 0 | 1046.56 | 1043.43 | 1040.28 | 1037.11 | 1033.92 | 1617.6 | 1606.2 | 1594.8 | 1583.5 | 1572.1
x2 = 0.1108 | 1052.98 | 1049.7 | 1046.4 | 1043.08 | 1039.74 | 1619.8 | 1607.5 | 1595.3 | 1583.4 | 1571.2
x2 = 0.2172 | 1059.11 | 1055.69 | 1052.25 | 1048.8 | 1045.34 | 1621.2 | 1608.3 | 1595.4 | 1582.9 | 1569.9
x2 = 0.3044 | 1064.1 | 1060.58 | 1057.04 | 1053.49 | 1049.93 | 1621.9 | 1608.6 | 1595.3 | 1582.3 | 1568.7
x2 = 0.4174 | 1070.53 | 1066.89 | 1063.24 | 1059.57 | 1055.89 | 1622.4 | 1608.5 | 1594.6 | 1581.1 | 1566.8
x2 = 0.5076 | 1075.64 | 1071.91 | 1068.17 | 1064.41 | 1060.65 | 1622.4 | 1608 | 1593.7 | 1579.9 | 1565.1
x2 = 0.6177 | 1081.83 | 1078 | 1074.17 | 1070.32 | 1066.47 | 1621.9 | 1607 | 1592.3 | 1578.2 | 1562.8
x2 = 0.6909 | 1085.92 | 1082.04 | 1078.15 | 1074.25 | 1070.34 | 1621.4 | 1606.2 | 1591.2 | 1576.8 | 1561.1
x2 = 0.8139 | 1092.77 | 1088.8 | 1084.83 | 1080.85 | 1076.87 | 1620.2 | 1604.5 | 1589 | 1574.4 | 1558.2
x2 = 0.8736 | 1096.07 | 1092.07 | 1088.06 | 1084.05 | 1080.04 | 1619.5 | 1603.5 | 1587.9 | 1573.1 | 1556.8
